According to patent US20090068290A1, “BIFEPRUNOX DOSES FOR TREATING SCHIZOPHRENIA” (priority 2006, published 2009):

Legend:
[1] = tested on: patients with chronic schizophrenia; test: Time to deterioration, Clinical Study Four (6-month, placebo-controlled); assay type: in vivo, human; conditions: for proportion of patients who deteriorated / time to deterioration of schizophrenia versus PBO (in words): 6 months; for proportion of patients who deteriorated / estimated hazard ratio relative to PBO, time to deterioration (Cox proportional hazards model) / Hazard Ratio (Cox), time to deterioration / % Deteriorated / No. of Pts Deteriorated: FAS; for time to deterioration of schizophrenia versus PBO (in words): BX 20 and 30 mg/day
Method: (§1) METHODOLOGY: This study was a multinational, multicenter, randomized, double-blind, parallel-group, placebo-controlled, fixed-dose study. The study consisted of a 3- to 6-day antipsychotic-free run-in period, after which patients were randomised to 6 months of double-blind treatment with fixed doses of bifeprunox (20 mg/day (BX20) or 30 mg/day (BX30)) or placebo (PBO). Patients allocated to the BX groups were up-titrated from 0.25 mg/day over 7 days (BX20) or 8 days (BX30), and then continued on these doses for the remainder of the study. […] At predetermined time points, blood samples were obtained for drug concentration analysis of BX and its major metabolites (3′- and 4′-sulfate conjugates of BX), and pharmaco-economic assessments were performed.
Investigational Product, Dose and Mode of Administration, Batch Number: Bifeprunox—up-titration over 7 (20 mg) or 8 days (30 mg) to 20 or 30 mg once daily; encapsulated tablets, orally.
Reference Thera Dose and Mode of Administration: Placebo—encapsulated tablets, orally.

[2] = tested on: patients with chronic schizophrenia; test: PANSS total score, Clinical Study Four; assay type: in vivo, human; conditions: FAS, ANCOVA; for Adjusted Mean Change from Baseline in PANSS Total Score, Difference to PBO Mean: Week 6 (day 42)
Method: as §1

O=c1[nH]c2cccc(N3CCN(Cc4cccc(-c5ccccc5)c4)CC3)c2o1 [Bifeprunox, 7-[4-([1,1′-biphenyl]-3-ylmethyl)-1-piperazinyl]-2(3H)-benzoxazolone]
proportion of patients who deteriorated ([1]; BX20 (20 mg/day)): 41% | estimated hazard ratio relative to PBO, time to deterioration (Cox proportional hazards model) ([1]; BX20 (20 mg/day)): 0.66 | Hazard Ratio (Cox), time to deterioration ([1]; BX20 (bifeprunox 20 mg) relative to PBO): 0.656 | % Deteriorated ([1]; BX20 (bifeprunox 20 mg)): 40.5% | No. of Pts Deteriorated ([1]; BX20 (bifeprunox 20 mg), N 158): 64 | time to deterioration of schizophrenia versus PBO (in words) [1]: prevented deterioration of schizophrenia statistically significantly better than placebo | time to deterioration of schizophrenia versus PBO (in words) ([1]; listed as BX): statistically significantly longer time to deterioration | proportion of patients who deteriorated ([1]; BX30 (30 mg/day)): 38% | estimated hazard ratio relative to PBO, time to deterioration (Cox proportional hazards model) ([1]; BX30 (30 mg/day)): 0.65 | Hazard Ratio (Cox), time to deterioration ([1]; BX30 (bifeprunox 30 mg) relative to PBO): 0.653 | % Deteriorated ([1]; BX30 (bifeprunox 30 mg)): 38.4% | No. of Pts Deteriorated ([1]; BX30 (bifeprunox 30 mg), N 172): 66 | Adjusted Mean Change from Baseline in PANSS Total Score, Difference to PBO Mean ([2]; BX20 (bifeprunox 20 mg/day), LOCF): −5.07 | Adjusted Mean Change from Baseline in PANSS Total Score, Difference to PBO Mean ([2]; BX30 (bifeprunox 30 mg/day), LOCF): −3.71 | Adjusted Mean Change from Baseline in PANSS Total Score, Least Squares Estimates Mean ([2]; Day 7, LOCF, listed as BX20): −1.89 | Change from Baseline in PANSS Total Score, Difference to PBO Mean ([2]; Day 7, LOCF, listed as BX20): −1.30 | Adjusted Mean Change from Baseline in PANSS Total Score, Least Squares Estimates Mean ([2]; Day 7, LOCF, listed as BX30): −0.73 | Change from Baseline in PANSS Total Score, Difference to PBO Mean ([2]; Day 7, LOCF, listed as BX30): −0.14 | Adjusted Mean Change from Baseline in PANSS Total Score, Least Squares Estimates Mean ([2]; Day 7, OC, listed as BX20): −1.89 | Change from Baseline in PANSS Total Score, Difference to PBO Mean ([2]; Day 7, OC, listed as BX20): −1.30 | Adjusted Mean Change from Baseline in PANSS Total Score, Least Squares Estimates Mean ([2]; Day 7, OC, listed as BX30): −0.73 | Change from Baseline in PANSS Total Score, Difference to PBO Mean ([2]; Day 7, OC, listed as BX30): −0.14 | Adjusted Mean Change from Baseline in PANSS Total Score, Least Squares Estimates Mean ([2]; Day 7, POCF, listed as BX20): −2.81 | Change from Baseline in PANSS Total Score, Difference to PBO Mean ([2]; Day 7, POCF, listed as BX20): −1.33 | Adjusted Mean Change from Baseline in PANSS Total Score, Least Squares Estimates Mean ([2]; Day 7, POCF, listed as BX30): −2.23 | Change from Baseline in PANSS Total Score, Difference to PBO Mean ([2]; Day 7, POCF, listed as BX30): −0.76 | Adjusted Mean Change from Baseline in PANSS Total Score, Least Squares Estimates Mean ([2]; Day 14, LOCF, listed as BX20): −3.03 | Change from Baseline in PANSS Total Score, Difference to PBO Mean ([2]; Day 14, LOCF, listed as BX20): −2.38 | Adjusted Mean Change from Baseline in PANSS Total Score, Least Squares Estimates Mean ([2]; Day 14, LOCF, listed as BX30): −1.45 | Change from Baseline in PANSS Total Score, Difference to PBO Mean ([2]; Day 14, LOCF, listed as BX30): −0.79 | Adjusted Mean Change from Baseline in PANSS Total Score, Least Squares Estimates Mean ([2]; Day 14, OC, listed as BX20): −4.77 | Change from Baseline in PANSS Total Score, Difference to PBO Mean ([2]; Day 14, OC, listed as BX20): −2.39 | Adjusted Mean Change from Baseline in PANSS Total Score, Least Squares Estimates Mean ([2]; Day 14, OC, listed as BX30): −4.43 | Change from Baseline in PANSS Total Score, Difference to PBO Mean ([2]; Day 14, OC, listed as BX30): −2.05 | Adjusted Mean Change from Baseline in PANSS Total Score, Least Squares Estimates Mean ([2]; Day 14, POCF, listed as BX20): −5.48 | Change from Baseline in PANSS Total Score, Difference to PBO Mean ([2]; Day 14, POCF, listed as BX20): −2.61 | Adjusted Mean Change from Baseline in PANSS Total Score, Least Squares Estimates Mean ([2]; Day 14, POCF, listed as BX30): −4.65 | Change from Baseline in PANSS Total Score, Difference to PBO Mean ([2]; Day 14, POCF, listed as BX30): −1.78 | Adjusted Mean Change from Baseline in PANSS Total Score, Least Squares Estimates Mean ([2]; Day 28, LOCF, listed as BX20): −.327 | Change from Baseline in PANSS Total Score, Difference to PBO Mean ([2]; Day 28, LOCF, listed as BX20): −3.34 | Adjusted Mean Change from Baseline in PANSS Total Score, Least Squares Estimates Mean ([2]; Day 28, LOCF, listed as BX30): −2.13 | Change from Baseline in PANSS Total Score, Difference to PBO Mean ([2]; Day 28, LOCF, listed as BX30): −2.20 | Adjusted Mean Change from Baseline in PANSS Total Score, Least Squares Estimates Mean ([2]; Day 28, OC, listed as BX20): −7.61 | Change from Baseline in PANSS Total Score, Difference to PBO Mean ([2]; Day 28, OC, listed as BX20): −4.09 | Adjusted Mean Change from Baseline in PANSS Total Score, Least Squares Estimates Mean ([2]; Day 28, OC, listed as BX30): −7.14 | Change from Baseline in PANSS Total Score, Difference to PBO Mean ([2]; Day 28, OC, listed as BX30): −3.63 | Adjusted Mean Change from Baseline in PANSS Total Score, Least Squares Estimates Mean ([2]; Day 28, POCF, listed as BX20): −7.74 | Change from Baseline in PANSS Total Score, Difference to PBO Mean ([2]; Day 28, POCF, listed as BX20): −3.63 | Adjusted Mean Change from Baseline in PANSS Total Score, Least Squares Estimates Mean ([2]; Day 28, POCF, listed as BX30): −6.85 | Change from Baseline in PANSS Total Score, Difference to PBO Mean ([2]; Day 28, POCF, listed as BX30): −2.74 | Adjusted Mean Change from Baseline in PANSS Total Score, Least Squares Estimates Mean ([2]; Day 42, LOCF, listed as BX20): −4.01 | Change from Baseline in PANSS Total Score, Difference to PBO Mean ([2]; Day 42, LOCF, listed as BX20): −5.07 | Adjusted Mean Change from Baseline in PANSS Total Score, Least Squares Estimates Mean ([2]; Day 42, LOCF, listed as BX30): −2.65 | Change from Baseline in PANSS Total Score, Difference to PBO Mean ([2]; Day 42, LOCF, listed as BX30): −3.71 | Adjusted Mean Change from Baseline in PANSS Total Score, Least Squares Estimates Mean ([2]; Day 42, OC, listed as BX20): −12.40 | Change from Baseline in PANSS Total Score, Difference to PBO Mean ([2]; Day 42, OC, listed as BX20): −6.14 | Adjusted Mean Change from Baseline in PANSS Total Score, Least Squares Estimates Mean ([2]; Day 42, OC, listed as BX30): −11.23 | Change from Baseline in PANSS Total Score, Difference to PBO Mean ([2]; Day 42, OC, listed as BX30): −4.97 | Adjusted Mean Change from Baseline in PANSS Total Score, Least Squares Estimates Mean ([2]; Day 42, POCF, listed as BX20): −9.40 | Change from Baseline in PANSS Total Score, Difference to PBO Mean ([2]; Day 42, POCF, listed as BX20): −4.32 | Adjusted Mean Change from Baseline in PANSS Total Score, Least Squares Estimates Mean ([2]; Day 42, POCF, listed as BX30): −8.12 | Change from Baseline in PANSS Total Score, Difference to PBO Mean ([2]; Day 42, POCF, listed as BX30): −3.05 | Adjusted Mean Change from Baseline in PANSS Total Score, Least Squares Estimates Mean ([2]; Day 63, LOCF, listed as BX20): −3.22 | Change from Baseline in PANSS Total Score, Difference to PBO Mean ([2]; Day 63, LOCF, listed as BX20): −5.47 | Adjusted Mean Change from Baseline in PANSS Total Score, Least Squares Estimates Mean ([2]; Day 63, LOCF, listed as BX30): −2.44
